# Source: PMC12735921, “Evaluation of Antiproliferative Activity and Molecular Modeling Studies of Some Novel Benzimidazolone-Bridged Hybrid Compounds” (Pharmaceuticals, 2025)
# Values joined by “and” are separate entries in the source; they are usually repeats but may differ in a detail not shown here. Equal values may be shown once.
# How the values were obtained:
# Type in all cases: cell-based, human
# HeLa cells [1] = test: MTT cell viability assay, HeLa; conditions: for IC50: Homo sapiens, HeLa, MTT, 48 h, mean ± SD, n = 3; for HeLa Selectivity Index (SI): SI = IC50 (HEK 293)/IC50 (HeLa)
# Procedure: (§1) Cell viability assay was performed on the human lung cancer (A549) (ATCC CCL-185), human breast cancer (MCF-7) (ATCC-HTB-22), cervical cancer (HeLa) (ATCC-CCL-2), and human embryonic kidney 293 (HEK293) (ATCC-CRL-1573) cell lines, which were purchased from Deutsche Sammlung von Mikroorganismen und Zellkulturen (DSMZ, Braunschweig, Germany). The cells were maintained in Dulbecco’s modified Eagle’s medium (DMEM), supplemented with 10% fetal bovine serum (FBS), 2 mM L-glutamine, 100 U/mL penicillin, and 100 mg/L streptomycin (Biochrom AG, Berlin, Germany) at 37 °C in a humidified atmosphere of 5% CO2.
# (§2) The cytotoxic effect was determined by the MTT (3-(4,5-dimethyl-2-thiazolyl)-2,5-diphenyl-2H-tetrazolium bromide) cell viability assay. Cells were seeded at an initial concentration of 1 × 10^5 cells/mL in 96-well microplates. Cells were then treated with different concentrations (0.5, 5, 10, 25, 50, 100 and 200 µM) of the novel synthesized compounds for 48 h. After the incubation period, the formed formazan crystals were dissolved in dimethyl sulfoxide (DMSO), and the optical density (OD) of the compounds was measured at 570 nm using a spectrophotometer (BMG Labtech, Ortenberg, Germany). Cytotoxicity was expressed as an increase in the mean percentage of cytotoxicity relative to the unexposed control ± standard deviation (SD). […] Control values were set at 0% cytotoxicity. IC50 was calculated by fitting the data to a sigmoidal curve using a four-parameter logistic model and was presented as an average of three independent measurements. […] Doxorubicin was used as a positive control. Each sample was tested in triplicate.
# (§3) To evaluate the selectivity of the tested compound(s) toward cancer cells over normal cells, the Selectivity Index (SI) was calculated using the following formula:SI = IC50 (normal cells)/IC50 (cancer cells)
# (§4) An SI value greater than 2 was considered to indicate selective cytotoxicity, while values below 2 were interpreted as non-selective. Higher SI values reflect greater therapeutic potential due to reduced toxicity toward normal cells.
# A549 cells [2] = test: LDH leakage assay, A549; conditions: A549, IC50 concentration of compound, 48 h; H2O2 positive control; mean ± SD, n = 3
# Procedure: (§5) One hundred microliters of culture medium was transferred to a new 96-well plate. One hundred microliters of LDH reaction solution was added to each well, and absorbance was measured at 490 nm using an ELISA plate reader (BMG Labtech, Ortenberg, Germany) after 30 min.
# HEK 293 cells = test: MTT cell viability assay, non-cancerous HEK 293; conditions: Homo sapiens, HEK293, 48 h, mean ± SD, n = 3
# Procedure: as §1
# The cytotoxic effect was determined by the MTT (3-(4,5-dimethyl-2-thiazolyl)-2,5-diphenyl-2H-tetrazolium bromide) cell viability assay. Cells were seeded at an initial concentration of 1 × 10^5 cells/mL in 96-well microplates. Cells were then treated with different concentrations (0.5, 5, 10, 25, 50, 100 and 200 µM) of the novel synthesized compounds for 48 h. After the incubation period, the formed formazan crystals were dissolved in dimethyl sulfoxide (DMSO), and the optical density (OD) of the compounds was measured at 570 nm using a spectrophotometer (BMG Labtech, Ortenberg, Germany). Cytotoxicity was expressed as an increase in the mean percentage of cytotoxicity relative to the unexposed control ± standard deviation (SD). […] Control values were set at 0% cytotoxicity. IC50 was calculated by fitting the data to a sigmoidal curve using a four-parameter logistic model and was presented as an average of three independent measurements. […] Each sample was tested in triplicate.
# A549 cells [3] = test: Total oxidative status (TOS), A549; conditions: A549, IC50 concentration of compound, 48 h; H2O2 250 µM positive control; mean ± SD, n = 3
# Procedure: (§6) TOS were evaluated using a commercially available kit (Rel Assay Diagnostics®, Gaziantep, Turkey) according to the manufacturer’s instructions. […] The TOS assay quantifies oxidizing agents based on their ability to convert an iron (II) ion chelator complex to iron (III) ions. The results were calibrated against hydrogen peroxide (H2O2, 250 µM) as a positive control for 48 h and expressed as µmol H2O2 equivalents per liter. The analysis was performed in three independent biological replicates (n = 3).
# A549 cells [4] = test: MTT cell viability assay, A549; conditions: for IC50: Homo sapiens, A549, MTT, 48 h, mean ± SD, n = 3; for A549 Selectivity Index (SI): SI = IC50 (HEK 293)/IC50 (A549)
# Procedure: as §1, §2, §3, §4
# A549 cells [5] = test: Cell cycle analysis (PI staining, flow cytometry), A549; conditions: A549, IC50 concentration, 48 h, mean ± SEM, n = 3
# Procedure: (§7) Cell cycle distribution was assessed by propidium iodide (PI) staining and flow cytometry. HeLa, MCF-7, and A549 cells were seeded in 6-well plates at a density of 1 × 10^5 cells per well and allowed to attach overnight. […] Following exposure, both adherent and floating cells were collected, washed twice with cold phosphate-buffered saline (PBS, pH 7.4), and fixed overnight in 70% cold ethanol at 4 °C. After fixation, the cells were centrifuged and resuspended in 500 µL of PI/RNase staining solution containing 50 µg/mL PI and 100 µg/mL RNase A (Sigma-Aldrich®, St. Louis, MO, USA), followed by incubation in the dark for 30 min at 37 °C. The stained samples were analyzed using a Muse™ Cell Analyzer (Merck, Millipore, Germany) equipped with a 488 nm excitation laser and a 617 nm emission filter. A minimum of 10,000 events per sample were acquired after exclusion of debris and doublets via FSC-A vs. FSC-H gating. The DNA content histograms were generated automatically, and cell populations were expressed as percentages of G0/G1, S, and G2/M phases using the Muse™ Cell Cycle Analysis Software 1.5.0.0. All assays were conducted in triplicate biological repeats (n = 3), and results were reported as mean ± SEM.
# MCF-7 cells [6] = test: MTT cell viability assay, MCF-7; conditions: for IC50: Homo sapiens, MCF7, MTT, 48 h, mean ± SD, n = 3; for MCF-7 Selectivity Index (SI): SI = IC50 (HEK 293)/IC50 (MCF-7)
# Procedure: as §1, §2, §3, §4
# A549 cells [7] = test: Intracellular GSH/GSSG ratio, A549; conditions: A549, IC50 concentration of compound, 48 h; H2O2 positive control; mean ± SD, n = 3
# Procedure: (§8) Intracellular reduced (GSH) and oxidized (GSSG) glutathione levels were measured using the GSH/GSSG Ratio Detection Assay Kit (Cayman Chemical, Ann Arbor, MI, USA, Cat. No: 703002) according to the manufacturer’s protocol. […] After treatment, cells were washed with cold PBS and lysed with MES buffer provided in the kit.
# (§9) To prevent oxidation of GSH to GSSG during processing, samples were deproteinized using the supplied metaphosphoric acid solution and neutralized accordingly. Total glutathione and GSSG levels were measured separately by adding the appropriate buffers and reagents to the wells of a 96-well plate, followed by the addition of DTNB recycling reagent and glutathione reductase. Absorbance was read at 405 nm using a microplate reader (BMG Labtech, Germany). The amount of GSH was calculated by subtracting 2 × GSSG from the total glutathione, and the GSH/GSSG ratio was used to assess intracellular redox status.
# MCF-7 cells [8] = test: Cell cycle analysis (PI staining, flow cytometry), MCF-7; conditions: MCF-7, IC50 concentration, 48 h, mean ± SEM, n = 3
# Procedure: as §7
# MCF-7 cells [9] = test: Intracellular GSH/GSSG ratio, MCF-7; conditions: MCF-7, IC50 concentration of compound, 48 h; H2O2 positive control; mean ± SD, n = 3
# Procedure: as §8, §9
# HeLa cells [10] = test: LDH leakage assay, HeLa; conditions: IC50 concentration of compound, 48 h, H2O2 positive control, mean ± SD, n = 3
# Procedure: as §5
# MCF-7 cells [11] = test: Total oxidative status (TOS), MCF-7; conditions: MCF-7, IC50 concentration of compound, 48 h; H2O2 250 µM positive control; mean ± SD, n = 3
# Procedure: as §6
# MCF-7 cells [12] = test: LDH leakage assay, MCF-7; conditions: MCF-7, IC50 concentration of compound, 48 h; H2O2 positive control; mean ± SD, n = 3
# Procedure: as §5
# HeLa cells [13] = test: Total oxidative status (TOS), HeLa; conditions: IC50 concentration of compound, 48 h, H2O2 250 µM positive control, mean ± SD, n = 3
# Procedure: as §6
# HeLa cells [14] = test: Intracellular GSH/GSSG ratio, HeLa; conditions: IC50 concentration of compound, 48 h, H2O2 positive control, mean ± SD, n = 3
# Procedure: as §8, §9
# HeLa cells [15] = test: Cell cycle analysis (PI staining, flow cytometry), HeLa; conditions: IC50 concentration, 48 h, mean ± SEM, n = 3
# Procedure: as §7
structure (smiles),measurement,setting,value
"O=c1[nH]c2cc(Cl)c(Cl)cc2[nH]1 [Compound 1, 5,6-Dichloro-1,3-dihydro-2H-benzimidazol-2-one]",IC50,HeLa cells [1],31.6 ± 1.82 µM
same,HeLa Selectivity Index (SI),HeLa cells [1],1.9
same,LDH,A549 cells [2],"19.8 ± 1.7 µU/mL and 19.8 ± 1.7 ^a,b µU/mL"
same,IC50,HEK 293 cells,60.1 ± 3.47 µM
same,TOS,A549 cells [3],"6.1 ± 0.4 µmol H2O2 eq/L and 6.1 ± 0.4 ^a,b µmol H2O2 eq/L"
same,IC50,A549 cells [4],29.5 ± 1.7 µM
same,A549 Selectivity Index (SI),A549 cells [4],2.03
same,cells in G0/G1 phase,A549 cells [5],57.2 ± 1.9%
same,cells in G2/M phase,A549 cells [5],20.1 ± 1.5%
same,cells in S phase,A549 cells [5],22.7 ± 1.5%
same,IC50,MCF-7 cells [6],41.3 ± 2.4 µM
same,MCF-7 Selectivity Index (SI),MCF-7 cells [6],1.46
same,GSH/GSSG,A549 cells [7],"13.5 ± 1.3 nmol/mg Protein and 13.5 ± 1.3 ^a,b nmol/mg Protein"
"O=c1n(Cc2nnc(S)o2)c2cc(Cl)c(Cl)cc2n1Cc1nnc(S)o1 [Compound 7, 5,6-Dichloro-1,3-bis((5-mercapto-1,3,4-oxadiazol-2-yl)methyl)-1H-benzo[d]imidazol-2(3H)-one]",IC50,HeLa cells [1],10.6 ± 0.61 µM
same,HeLa Selectivity Index (SI),HeLa cells [1],3.63
same,IC50,HEK 293 cells,38.5 ± 2.2 µM
same,cells in G0/G1 phase,MCF-7 cells [8],69.0 ± 2.0%
same,cells in G2/M phase,MCF-7 cells [8],13.8 ± 1.2%
same,cells in S phase,MCF-7 cells [8],17.2 ± 1.3%
same,GSH/GSSG,MCF-7 cells [9],"11.3 ± 1.0 nmol/mg Protein and 11.3 ± 1.0 ^a,b nmol/mg Protein"
same,LDH,HeLa cells [10],"30.9 ± 2.7 µU/mL and 30.9 ± 2.7 ^a,b µU/mL"
same,IC50,A549 cells [4],27.4 ± 1.58 µM
same,A549 Selectivity Index (SI),A549 cells [4],1.4
same,TOS,MCF-7 cells [11],"7.6 ± 0.6 µmol H2O2 eq/L and 7.6 ± 0.6 ^a,b µmol H2O2 eq/L"
same,LDH,MCF-7 cells [12],"25.3 ± 2.0 µU/mL and 25.3 ± 2.0 ^a,b µU/mL"
same,TOS,HeLa cells [13],"8.6 ± 0.7 µmol H2O2 eq/L and 8.6 ± 0.7 ^a,b µmol H2O2 eq/L"
same,GSH/GSSG,HeLa cells [14],9.4 ± 1.0
same,cells in G0/G1 phase,HeLa cells [15],38.4 ± 2.1%
same,cells in G2/M phase,HeLa cells [15],38.4 ± 1.9%
same,cells in S phase,HeLa cells [15],23.2 ± 1.5%
same,IC50,MCF-7 cells [6],19.1 ± 1.1 µM
same,MCF-7 Selectivity Index (SI),MCF-7 cells [6],2.01
